Results taken from PubChem BioAssay (NCI).
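Following 48 hours of exposure in 96-well plates, responses at five concentrations were used to interpolate endpoints linearly. At the TGI there is no net growth.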

Legend:
Experiment in all cases: inhibition of tumour cell growth, NCI panel, 48 h
SW-620 colon = tested on: SW-620 colon
NCI-H460 lung = tested on: NCI-H460 lung
A549 NSCLC = tested on: A549 NSCLC
RPMI-8226 leukemia = tested on: RPMI-8226 leukemia
OVCAR-8 ovarian = tested on: OVCAR-8 ovarian
MALME-3M melanoma = tested on: MALME-3M melanoma
CAKI-1 renal = tested on: CAKI-1 renal
COLO 205 colon = tested on: COLO 205 colon
NCI-H23 lung = tested on: NCI-H23 lung
HL-60(TB) leukemia = tested on: HL-60(TB) leukemia
HOP-92 NSCLC = tested on: HOP-92 NSCLC
LOX IMVI melanoma = tested on: LOX IMVI melanoma
U251 CNS = tested on: U251 CNS
ACHN renal = tested on: ACHN renal
UO-31 renal = tested on: UO-31 renal
HS 578T breast = tested on: HS 578T breast
KM12 colon = tested on: KM12 colon
HCT-116 colon = tested on: HCT-116 colon
HT29 colon = tested on: HT29 colon
UACC-257 melanoma = tested on: UACC-257 melanoma
SR leukemia = tested on: SR leukemia
K-562 leukemia = tested on: K-562 leukemia
MDA-N = tested on: MDA-N
PC-3 prostate = tested on: PC-3 prostate
SK-MEL-2 melanoma = tested on: SK-MEL-2 melanoma
SNB-75 CNS = tested on: SNB-75 CNS
TK-10 renal = tested on: TK-10 renal
CCRF-CEM leukemia = tested on: CCRF-CEM leukemia
NCI-H522 lung = tested on: NCI-H522 lung
786-0 renal = tested on: 786-0 renal
SK-MEL-5 melanoma = tested on: SK-MEL-5 melanoma
DU-145 prostate = tested on: DU-145 prostate
T-47D breast = tested on: T-47D breast
OVCAR-4 ovarian = tested on: OVCAR-4 ovarian
NCI/ADR-RES ovarian = tested on: NCI/ADR-RES ovarian
SF-268 CNS = tested on: SF-268 CNS
HCC-2998 colon = tested on: HCC-2998 colon
MDA-MB-231 breast = tested on: MDA-MB-231 breast
NCI-H226 lung = tested on: NCI-H226 lung
UACC-62 melanoma = tested on: UACC-62 melanoma
MDA-MB-435 = tested on: MDA-MB-435
SN12C renal = tested on: SN12C renal
A498 renal = tested on: A498 renal
HCT-15 colon = tested on: HCT-15 colon
SK-MEL-28 melanoma = tested on: SK-MEL-28 melanoma
BT-549 breast = tested on: BT-549 breast
SNB-19 CNS = tested on: SNB-19 CNS
SF-295 CNS = tested on: SF-295 CNS
OVCAR-3 ovarian = tested on: OVCAR-3 ovarian
MOLT-4 leukemia = tested on: MOLT-4 leukemia
RXF 393 renal = tested on: RXF 393 renal
IGROV1 ovarian = tested on: IGROV1 ovarian
SF-539 CNS = tested on: SF-539 CNS
HOP-62 NSCLC = tested on: HOP-62 NSCLC
M14 melanoma = tested on: M14 melanoma
SK-OV-3 ovarian = tested on: SK-OV-3 ovarian
EKVX NSCLC = tested on: EKVX NSCLC
OVCAR-5 ovarian = tested on: OVCAR-5 ovarian
MCF7 breast = tested on: MCF7 breast

What does the source list for `Cn1ccc(C(=O)N2CCSC2=S)c(OCc2ccccc2)c1=O`?
TGI (SW-620 colon): > 100000 nM; TGI (NCI-H460 lung): > 100000 nM; TGI (A549 NSCLC): > 100000 nM; TGI (RPMI-8226 leukemia): > 100000 nM; TGI (OVCAR-8 ovarian): > 100000 nM; TGI (MALME-3M melanoma): > 100000 nM; TGI (CAKI-1 renal): > 100000 nM; TGI (COLO 205 colon): > 100000 nM; TGI (NCI-H23 lung): > 100000 nM; TGI (HL-60(TB) leukemia): > 100000 nM; TGI (HOP-92 NSCLC): > 100000 nM; TGI (LOX IMVI melanoma): > 100000 nM; TGI (U251 CNS): > 100000 nM; TGI (ACHN renal): > 100000 nM; TGI (UO-31 renal): > 100000 nM; TGI (HS 578T breast): > 100000 nM; TGI (KM12 colon): > 100000 nM; TGI (HCT-116 colon): > 100000 nM; TGI (HT29 colon): > 100000 nM; TGI (UACC-257 melanoma): > 100000 nM; TGI (SR leukemia): 93600 nM; TGI (K-562 leukemia): > 100000 nM; TGI (MDA-N): > 100000 nM; TGI (PC-3 prostate): > 100000 nM; TGI (SK-MEL-2 melanoma): > 100000 nM; TGI (SNB-75 CNS): > 100000 nM; TGI (TK-10 renal): > 100000 nM; TGI (CCRF-CEM leukemia): > 100000 nM; TGI (NCI-H522 lung): > 100000 nM; TGI (786-0 renal): > 100000 nM; TGI (SK-MEL-5 melanoma): > 100000 nM; TGI (DU-145 prostate): > 100000 nM; TGI (T-47D breast): > 100000 nM; TGI (OVCAR-4 ovarian): > 100000 nM; TGI (NCI/ADR-RES ovarian): > 100000 nM; TGI (SF-268 CNS): > 100000 nM; TGI (HCC-2998 colon): > 100000 nM; TGI (MDA-MB-231 breast): > 100000 nM; TGI (NCI-H226 lung): > 100000 nM; TGI (UACC-62 melanoma): > 100000 nM; TGI (MDA-MB-435): > 100000 nM; TGI (SN12C renal): > 100000 nM; TGI (A498 renal): > 100000 nM; TGI (HCT-15 colon): > 100000 nM; TGI (SK-MEL-28 melanoma): > 100000 nM; TGI (BT-549 breast): > 100000 nM; TGI (SNB-19 CNS): > 100000 nM

For `CC(C)C[C@H](NC(=O)[C@H](Cc1ccccc1)NC(=O)CCc1ccccc1)B(O)O`, which TGI (SF-295 CNS) is on record?
Its TGI is under 10 nM.

And the TGI (SW-620 colon)?
Its TGI is under 10.4 nM.

And the TGI (NCI-H460 lung)?
Its TGI is under 10.4 nM.

And the TGI (A549 NSCLC)?
Its TGI is 91.9 nM.

And the TGI (RPMI-8226 leukemia)?
Its TGI is over 100000 nM.

What about the TGI (OVCAR-8 ovarian) of the same compound?
Its TGI is under 10 nM.

What about the TGI (MALME-3M melanoma) of the same compound?
Its TGI is under 10 nM.

What about the TGI (CAKI-1 renal) of the same compound?
The TGI was 55.4 nM.

And the TGI (COLO 205 colon)?
Its TGI is under 10 nM.

And the TGI (NCI-H23 lung)?
The TGI was under 10 nM.

What about the TGI (HOP-92 NSCLC) of the same compound?
The TGI was under 10 nM.

What about the TGI (OVCAR-3 ovarian) of the same compound?
The TGI was under 10 nM.

And the TGI (LOX IMVI melanoma)?
The TGI was under 10 nM.

And the TGI (MOLT-4 leukemia)?
Its TGI is 665 nM.

And the TGI (RXF 393 renal)?
Its TGI is under 10 nM.

What about the TGI (U251 CNS) of the same compound?
The TGI was under 11.2 nM.

And the TGI (ACHN renal)?
Its TGI is under 10 nM.

And the TGI (UO-31 renal)?
The TGI was under 10 nM.

And the TGI (HS 578T breast)?
The TGI was under 10 nM.

And the TGI (IGROV1 ovarian)?
The TGI was under 10 nM.

And the TGI (KM12 colon)?
The TGI was 10.1 nM.

And the TGI (SF-539 CNS)?
The TGI was under 10 nM.

And the TGI (HCT-116 colon)?
The TGI was under 10 nM.

And the TGI (HOP-62 NSCLC)?
Its TGI is under 10 nM.

What about the TGI (HT29 colon) of the same compound?
Its TGI is under 10 nM.

What about the TGI (M14 melanoma) of the same compound?
Its TGI is under 10 nM.

What about the TGI (SK-OV-3 ovarian) of the same compound?
The TGI was 72.7 nM.

And the TGI (UACC-257 melanoma)?
The TGI was under 10 nM.

And the TGI (K-562 leukemia)?
The TGI was over 100000 nM.

And the TGI (EKVX NSCLC)?
The TGI was under 21.6 nM.

What about the TGI (MDA-N) of the same compound?
Its TGI is under 10 nM.

What about the TGI (PC-3 prostate) of the same compound?
Its TGI is under 10 nM.

What about the TGI (SK-MEL-2 melanoma) of the same compound?
The TGI was under 10 nM.

And the TGI (SNB-75 CNS)?
Its TGI is under 10 nM.

And the TGI (TK-10 renal)?
The TGI was under 10 nM.

What about the TGI (CCRF-CEM leukemia) of the same compound?
The TGI was over 100000 nM.

What about the TGI (OVCAR-5 ovarian) of the same compound?
Its TGI is under 10 nM.

What about the TGI (NCI-H522 lung) of the same compound?
The TGI was under 10 nM.

What about the TGI (786-0 renal) of the same compound?
The TGI was under 10 nM.

What about the TGI (MCF7 breast) of the same compound?
The TGI was 225 nM.

And the TGI (SK-MEL-5 melanoma)?
The TGI was under 10 nM.

And the TGI (DU-145 prostate)?
Its TGI is under 10 nM.

And the TGI (T-47D breast)?
Its TGI is under 10 nM.

What about the TGI (OVCAR-4 ovarian) of the same compound?
The TGI was under 10 nM.

What about the TGI (NCI/ADR-RES ovarian) of the same compound?
The TGI was 1820 nM.

What about the TGI (SF-268 CNS) of the same compound?
The TGI was under 10 nM.

And the TGI (HCC-2998 colon)?
Its TGI is under 10 nM.

What about the TGI (MDA-MB-231 breast) of the same compound?
Its TGI is under 10 nM.

What about the TGI (NCI-H226 lung) of the same compound?
Its TGI is under 10 nM.

And the TGI (MDA-MB-435)?
The TGI was under 10 nM.

What about the TGI (SN12C renal) of the same compound?
The TGI was under 10 nM.

And the TGI (A498 renal)?
Its TGI is under 10 nM.

And the TGI (HCT-15 colon)?
Its TGI is under 10 nM.

What about the TGI (SK-MEL-28 melanoma) of the same compound?
Its TGI is under 10 nM.

And the TGI (BT-549 breast)?
The TGI was under 10 nM.

What about the TGI (SNB-19 CNS) of the same compound?
Its TGI is 1080 nM.
